Patent publication US5677336A, “Non-steroid androgen receptor antagonist compounds and methods” (Ligand Pharmaceuticals Incorporated, priority 1993, dated 1997)
pIC50: −log10 of the molar value. Read-outs that look alike come from different tables or passages of the source.

Tests used:
[1] = Wall et al., J. Nat. Prod. 1989; cited from earlier work
androgen receptor = target: T1, androgen receptor (Homo sapiens, UniProt P10275); test: Co-transfection androgen antagonist assay (CV-1 cells, pRShAR, MTV-LUC reporter; AR-wt); type: cell-based
T1 construct: expressed in transfected cells; host or cells: CV-1 (monkey kidney fibroblast) cells, plasmid pRShAR, with reporter plasmid MTV-LUC
T1 sequence (P10275 1-920): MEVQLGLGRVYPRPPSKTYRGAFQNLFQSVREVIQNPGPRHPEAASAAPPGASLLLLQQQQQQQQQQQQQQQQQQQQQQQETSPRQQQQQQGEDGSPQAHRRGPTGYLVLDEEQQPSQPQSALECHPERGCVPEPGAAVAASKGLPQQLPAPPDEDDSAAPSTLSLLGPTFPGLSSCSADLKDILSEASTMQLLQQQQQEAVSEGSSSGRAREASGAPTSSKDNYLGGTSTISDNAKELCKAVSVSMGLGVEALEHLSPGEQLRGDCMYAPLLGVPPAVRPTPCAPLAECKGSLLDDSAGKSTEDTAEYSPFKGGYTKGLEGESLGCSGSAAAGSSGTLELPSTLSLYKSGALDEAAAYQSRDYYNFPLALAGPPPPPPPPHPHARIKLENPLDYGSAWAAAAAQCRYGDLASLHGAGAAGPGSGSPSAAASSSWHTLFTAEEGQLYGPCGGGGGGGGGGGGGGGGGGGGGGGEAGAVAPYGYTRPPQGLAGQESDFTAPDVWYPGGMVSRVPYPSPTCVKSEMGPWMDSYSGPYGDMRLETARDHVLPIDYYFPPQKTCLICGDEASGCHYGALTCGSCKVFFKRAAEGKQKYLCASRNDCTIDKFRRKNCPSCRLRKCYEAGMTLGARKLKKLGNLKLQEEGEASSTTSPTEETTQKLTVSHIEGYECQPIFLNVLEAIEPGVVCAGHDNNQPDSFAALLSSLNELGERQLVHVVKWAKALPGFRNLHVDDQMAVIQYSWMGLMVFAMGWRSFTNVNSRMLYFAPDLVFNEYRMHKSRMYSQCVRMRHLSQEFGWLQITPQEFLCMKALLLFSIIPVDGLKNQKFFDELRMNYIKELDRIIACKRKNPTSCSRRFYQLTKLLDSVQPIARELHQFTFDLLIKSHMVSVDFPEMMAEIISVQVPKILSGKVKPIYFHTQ
Text: The co-transfection assay provides a method for identifying functional ligands (either agonists which mimic, or antagonists which inhibit, the effect of hormones), and quantifying their activity for ligand-responsive receptor proteins. In this regard, the co-transfection assay mimics an in vivo system in the laboratory. Importantly, activity in the co-transfection assay correlates very well with known in vivo activity, such that the co-transfection assay functions as a quantitative predicator of a tested compounds in vivo pharmacology. See, e.g., T. Berger et al. 41 J. Steroid Biochem. Molec.
(§1) In the co-transfection assay, a cloned gene for an intracellular receptor (e.g., androgen receptor) is introduced by transfection (a procedure to induce cells to take up foreign genes) into a background cell substantially devoid of endogenous intracellular receptors. This introduced gene directs the recipient cells to make the intracellular receptor protein. A second gene is also introduced (co-transfected) into the same cells in conjunction with the intracellular receptor gene. This second gene functions as a reporter for the transcription-modulating activity of the target intracellular receptor. Thus, the reporter acts as a surrogate for the products normally expressed by a gene under control of the target receptor and its natural hormone. A preferred reporter gene is one which expresses the firefly enzyme luciferase.
(§2) The co-transfection assay can detect small molecule agonists or antagonists of target intracellular receptors. Exposing the cells to an agonist ligand increases reporter activity in the transfected cells. This activity can be conveniently measured, e.g., by increasing luciferase production, which reflects ligand-dependent, intracellular receptor-mediated increases in reporter transcription. To detect antagonists, the co-transfection assay is carried out in the presence of a constant concentration of an agonist (e.g., for androgen receptor, dihydrotestosterone) known to induce a defined reporter signal. Increasing concentrations of a test antagonist will decrease the reporter signal (e.g., luciferase production). The co-transfection assay is therefore useful to detect both agonists and antagonists of specific intracellular receptors. It determines not only whether a compound interacts with a particular intracellular receptor, but whether this interaction mimics (agonizes) or blocks (antagonizes) the effects of the natural regulatory molecules on target gene expression, as well as the specificity and strength of this interaction.
Co-transfected cells are exposed to a medium to which is added the potential ligand (compound) that is being evaluated. If the candidate compound diffuses into the cell, binds to the receptor, and the resulting receptor complex functions as an agonist, it will subsequently bind to the co-transfected reporter gene and initiate transcription. Typically, the reporter gene is one that expresses luciferase, which is capable of catalyzing a light-emitting reaction with its substrate luciferin. Thus, after cell lysis and the introduction of luciferin, the amount of light produced relative to the concentration of candidate compound used in the assay provides a measure of the potency and efficacy of the compound tested. Antagonist activity is evaluated by adding the candidate ligand and a known agonist to the co-transfected cells. […]

[2] = test system: progesterone receptor (PR-TI); test: Antagonist activity on progesterone receptor, CV-1 cells cotransfected with pRShPR-B altered at Tau-1 (PR-TI); type: cell-based, human; conditions: Table 2, CV-1 cells PR-TI
Text: as §1, §2
Co-transfected cells are exposed to a medium to which is added the potential ligand (compound) that is being evaluated. If the candidate compound diffuses into the cell, binds to the receptor, and the resulting receptor complex functions as an agonist, it will subsequently bind to the co-transfected reporter gene and initiate transcription. Typically, the reporter gene is one that expresses luciferase, which is capable of catalyzing a light-emitting reaction with its substrate luciferin. Thus, after cell lysis and the introduction of luciferin, the amount of light produced relative to the concentration of candidate compound used in the assay provides a measure of the potency and efficacy of the compound tested. Antagonist activity is evaluated by adding the candidate ligand and a known agonist to the co-transfected cells.
The specific activity of Compounds A-J was compared relative to their antagonist activity on the human progesterone receptor (PR) utilizing CV-1 cells cotransfected with plasmid pRShPR-B, as altered at the Tau-1 location (e.g., PR-TI)[specifically, hPR-B was excised from the vector pGEM3Z (69 Cell 703 (1992)); the Tau-1 fragment of the gluccocorticoid receptor was inserted into hPR-B at the unique HincII site in the N-terminal region; a Bst EII to BST bI fragment spanning the Tau-1 insertion was then used to replace the corresponding region in pRShPR-B]. […] Potency or IC50 is as reported for AR-wt transfected CV-1 cells.

Emax (androgen receptor; CV-1, Table 1, androgen antagonists, relative to 2-Hydroxy-flutamide, read-out: Efficacy (% maximal response relative to 2-Hydroxy-flutamide))	pIC50 (androgen receptor; Table 1, androgen antagonists, read-out: Potency (IC50, concentration required to reduce the maximal response by 50%))	Emax (androgen receptor; Table 2, CV-1 cells AR-wt, read-out: Efficacy, AR-wt)	pIC50 ([2]; read-out: Potency, PR-TI (IC50))	Molecule	antimutagenic activity [1]	Efficacy, PR-TI (% maximal response) ([2]; comparable to that found with RU-486)
				4-isocymobarbatol	highly active antimutagens	
85%	6.52	85%	6.07	C=C1[C@@H](Cc2cc(OC)c(Br)cc2O)C(C)(C)CC[C@]1(C)O [J, (1S,3S)-1-Hydroxy-2-methylidene-3-(2'-hydroxy-4'-bromo-5'-methoxyphenyl)methyl-1,4,4-trimethylcyclohexane]		95%
				CC1(C)[C@@H](Br)CC[C@@]2(C)Oc3cc(Br)c(O)cc3C[C@@H]12 [cymobarbatol]	highly active antimutagens	
